According to US20170157112A1, “HIF INHIBITORS” (UCL BUSINESS PLC, priority 2013, published 2017):
Read-outs that look alike come from different tables or passages of the source.

What was measured:
[1] = test system: VEGF; experiment: PD endpoint VEGF protein in PC3LN5 orthotopic tumours; assay type: in vivo, mice; settings: 75 mg/kg IP daily
Description: (§1) PC3LN5 (10^5 cells) were implanted intraprostatically into mice (Nu) and tumours were allowed to develop for 12 days. Mice received HIF-Inhib1 (75 mg·kg^−1) by IP injection daily for 2.5 weeks. Plasma and tumour samples were taken 24 h after the last dose and analysed by LCMS. Tumours were excised and homogenised, and assessed for PD endpoints HIF-1α and VEGF proteins. Local and distant lymph node metastases were also evaluated.

[2] = test system: PC3LN5 orthotopic xenograft; experiment: PC3LN5 orthotopic mouse xenograft model: tumour growth, metastasis, body weight, PK; assay type: in vivo, mice
Description: as §1

[3] = test system: eIF-2α phosphorylation; experiment: Western blot of eIF-2α phosphorylation in U2OS-HRE-luc cells; assay type: cell-based; settings: for eIF-2α phosphorylation (western blot): dose range, normoxia or hypoxia 16 hours
Description: Cells were harvested and components of the protein translational machinery were assessed by western blot analysis.
(§2) Tubulin was used as a loading control.

[4] = test system: ERK1/2 and AKt/PKB; experiment: Western blot of cellular signaling proteins ERK1/2 and AKt/PKB; assay type: cell-based; settings: 1 μM, normoxia or hypoxia
Description: (§3) U2OS-HRE-luc described in A, were harvested for western blot analysis. FIG. 1B: Western blots show the effects of HIF-Inhib1 on HIF-1α protein in normoxia or hypoxia. Actin was used as a load control. FIG. 1C: Western blots show HIF-1α, phosphorylated ERK1/2 (ERK1/2-P), and AKT/PKB proteins in the absence (−) and presence of 1 μM HIF-Inhib1 in normoxia (norm) or hypoxia (hyp). Actin was used as a load control. FIG. 1D: Western blots show the effects of HIF-Inhib1 (1 μM) on HIF-2α protein levels. UT (untreated), and DMSO treated (−) controls are indicated;

[5] = test system: GLUT1; experiment: GLUT1 protein by western blot in U2OS-HRE-luc cells; assay type: cell-based; settings: 0.1-1 μM, hypoxia 16 hours
Description: (§4) Cells were harvested and assessed for VEGF and GLUT1 protein levels using a quantitative ELISA or by western blot analysis respectively. In addition, tumour cells were exposed to 0.5 or 2.5 μM HIF-Inhib1 in hypoxia, and tumour cell migration was measured using a 2-dimensional filter-based migration assay.

[6] = test system: HIF activity; experiment: U2OS-HRE-luc cell-based HRE-luciferase reporter assay; settings: for inhibition of luciferase activity in U2OS-HRE cells: 1 μM, 1% O2 for 16 hours
Description: Cells were harvested and luciferase activity was measured in cell lysates using a standard luminometer. Data was represented as relative light units (RLU) for each condition.
as §2

[7] = test system: HIF activity and HIF-α expression; experiment: HIF activity and HIF-α expression in several cancer cell lines; assay type: cell-based
[8] = test system: panel of tumour cell lines; experiment: Growth inhibition / toxicity on tumour cell lines; assay type: cell-based
[9] = test system: HIF-2α; experiment: Western blot of HIF-2α protein induction in hypoxia; assay type: cell-based; settings: 1 μM
Description: as §3

[10] = PK by LCMS in PC3LN5 subcutaneous xenograft mice; assay type: in vivo; settings: for concentration at 24 h: intraperitoneal
Description: HIF-Inhib1 was administered IP dose of 100 mg·kg^−1 to Nu mice with PC3LN5 xenografts. Mice were killed at 24 h and xenografts removed for PD/PK analysis. Tumour samples were homogenised with 3× (v/w) PBS and 50 μL extracted by addition of 150 μL of methanol. Tumour extracts were analysed by LCMS using reverse-phase Synergi Polar-RP (Phenomenx, 50×2.1 mm) analytical column and positive ion mode ESI+ MRM.

[11] = Tolerability of daily IP dosing in mice; settings: mouse, in vivo
[12] = test system: VEGF; experiment: VEGF protein by quantitative ELISA in U2OS-HRE-luc cells; assay type: cell-based
Description: as §4

[13] = PC3LN5 orthotopic xenograft, 75 mg/kg IP daily

In the case of `CCC1=C(CC2NCCc3cc(OC)c(OC)cc32)CC2c3ccccc3CCN2C1` (stereo not drawn) [Compound I], the “VEGF protein in PC3LN5 orthotopic tumours” value [1] is reported as “blocked”, the “PK profile in tumours” value ([2]; 75 mg/kg IP daily, 24 h after last dose, LCMS) is reported as “good PK profile” and the Mouse body weight ([2]; 16 days of daily dosing, 75 mg/kg IP) is reported as “not significantly affected”. The “metastasis (local and distant lymph nodes)” value [2, 13] was “significantly blocked”, the tumour growth [2, 13] was “significantly blocked” and the “potency in blocking eIF-2α phosphorylation” value [3] was 250 to 500 nM. The “eIF-2α phosphorylation (western blot)” value [3] was “block eIF-2α phosphorylation”, the “eIF-2α phosphorylation (western blot)” value ([3]; listed as HIF-Inhib1) was “blocked eIF-2α phosphorylation in a dose-dependent manner” and the “expression of key cellular signaling proteins ERK1/2 and AKt/PKB” value [4] was “no significant effect”. The “induction of HIF target protein GLUT1” value [5] was “blocks the induction”, the “HIF activity (HRE-luciferase activity, RLU)” value ([6]; 0.1-1 μM, hypoxia (1% O2) 16 hours) was “blocks HIF activity” and the IC50 ([6]; read-out: IC50 for inhibiting HIF activity) was about 500 nM. The “HIF activity and HIF-α expression in response to hypoxia and growth factors” value [7] was “inhibits both HIF activity and HIF-α expression”, the “concentrations inhibiting growth of a panel of tumour cell lines” value [8] was “submicromolar” and the “HIF-2α protein induction in hypoxia” value [9] was “blocks HIF-2α protein induction in hypoxia”. The bioavailability in vivo ([10]; 100 mg/kg IP, PC3LN5 xenograft mice) was “Good Bioavailability”, the “pharmacokinetic properties in vivo” value ([10]; mouse, in vivo) was “favourable pharmacokinetic properties” and the concentration at 24 h ([10]; mouse, plasma, 100 mg/kg IP, Nu mice with PC3LN5 xenografts, read-out: Plasma concentrations) was 70 to 300 nM. For the same compound, the concentration at 24 h ([10]; mouse, tumour (PC3LN5 subcutaneous xenograft), 100 mg/kg IP, PC3LN5 subcutaneous xenografts, Nu mice, LCMS, read-out: Tumour concentrations) was 1900 to 35000 nM, the MTD [11] was at most 100 mg/kg and the “induction of HIF target protein VEGF” value ([12]; 0.1-1 μM, hypoxia 16 hours, ELISA) was “blocks the induction”. The “potency in blocking VEGF induction in hypoxia” value ([12]; hypoxia) was 250 to 500 nM.

For `CCC1=C(C[C@@H]2NCCc3cc(OC)c(OC)cc32)C[C@H]2c3ccccc3CCN2C1` [UCL-ONY-003], the “inhibition of luciferase activity in U2OS-HRE cells” value (from here on “inhibition of luciferase activity”) [6] was “inactive”.

For `CCC1=C(C[C@@H]2NCCc3cc(OC)c(OC)cc32)C[C@@H]2c3ccccc3CCN2C1` [UCL-ONY-002], the “inhibition of luciferase activity” value [6] was “inactive”.

For `CC[C@H]1CN2CCc3cc(OC)c(OC)cc3[C@@H]2C[C@@H]1C[C@H]1NCCc2cc(OC)c(OC)cc21` [emetine, reference compound], the “eIF-2α phosphorylation (western blot)” value [3] was “blocks eIF-2α phosphorylation” and the “HIF activity (relative light units)” value ([6]; emetine 0.017 uM, hypoxia (1% O2) 16 hours) was “significantly blocked HIF activity”.

In the case of `CCC1=C(CC2c3ccc(OC)cc3CCN2S(C)(=O)=O)CC2c3ccccc3CCN2C1` (racemic) [UCL-ONY-004], the “inhibition of luciferase activity” value [6] is reported as “inactive”.
